{"source": "the supplement of paper PMC9663587", "key": {"Paclitaxel": {"compound": "CC(=O)O[C@H]1C(=O)[C@@]2(C)[C@H]([C@H](OC(=O)c3ccccc3)[C@]3(O)C[C@H](OC(=O)[C@H](O)[C@@H](NC(=O)c4ccccc4)c4ccccc4)C(C)=C1C3(C)C)[C@]1(OC(C)=O)CO[C@@H]1C[C@@H]2O [Paclitaxel]"}, "BSJ-03-123": {"compound": "CC(=O)c1c(C)c2cnc(Nc3ccc(N4CCN(CCOCCOCCOCCNC(=O)COc5cccc6c5C(=O)N(C5CCC(=O)NC5=O)C6=O)CC4)cn3)nc2n(C2CCCC2)c1=O [BSJ-03-123]"}, "SHP099": {"compound": "CC1(CCN(CC1)C2=CN=C(C(=N2)N)C3=C(C(=CC=C3)Cl)Cl)N [SHP099]"}, "[1]": {"compound": "CCN1CCN(Cc2ccc(Nc3ncc(F)c(-c4cc(F)c5nc(C)n(C(C)C)c5c4)n3)nc2)CC1"}, "[2]": {"compound": "CCc1cnn2c(NCc3ccc[n+]([O-])c3)cc(N3CCCC[C@H]3CCO)nc12"}, "Cabozantinib": {"compound": "COc1cc2nccc(Oc3ccc(NC(=O)C4(C(=O)Nc5ccc(F)cc5)CC4)cc3)c2cc1OC [Cabozantinib]"}, "AZD5363": {"compound": "NC1(C(=O)N[C@@H](CCO)c2ccc(Cl)cc2)CCN(c2nc[nH]c3nccc2-3)CC1 [AZD5363]"}, "Buparlisib/NVP-BKM120": {"compound": "Nc1cc(C(F)(F)F)c(-c2cc(N3CCOCC3)nc(N3CCOCC3)n2)cn1 [Buparlisib/NVP-BKM120]"}, "Vorinostat": {"compound": "O=C(CCCCCCC(=O)Nc1ccccc1)NO [Vorinostat]"}, "YKL-5-124": {"compound": "C=CC(=O)Nc1ccc(C(=O)Nc2[nH]nc3c2CN(C(=O)N[C@H](CN(C)C)c2ccccc2)C3(C)C)cc1 [YKL-5-124]", "experiment": "GR value, 72 h; higher = faster growth (1 = untreated, <0 = killing);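 further: breast cancer and non-malignant breast epithelial lines, nine half-log doses, viable cells counted by Hoechst and LIVE/DEAD dye imaging versus time-zero plates and DMSO controls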"}, "[3]": {"compound": "CC(=O)c1c(C)c2cnc(Nc3ccc(N4CCNCC4)cn3)nc2n(C2CCCC2)c1=O", "experiment": "GR value, 72 h; higher = faster growth (1 = untreated, <0 = killing)"}, "[4]": {"compound": "CCN1CCN(Cc2ccc(Nc3ncc(F)c(-c4cc(F)c5nc(C)n(C(C)C)c5c4)n3)nc2)CC1", "experiment": "GR value, 72 h; higher = faster growth (1 = untreated, <0 = killing)"}, "[5]": {"compound": "CCc1cnn2c(NCc3ccc[n+]([O-])c3)cc(N3CCCC[C@H]3CCO)nc12", "experiment": "GR value, 72 h; higher = faster growth (1 = untreated, <0 = killing)"}, "LEE011/Ribociclib": {"compound": "CN(C)C(=O)c1cc2cnc(Nc3ccc(N4CCNCC4)cn3)nc2n1C1CCCC1 [LEE011/Ribociclib]", "experiment": "GR value, 72 h; higher = faster growth (1 = untreated, <0 = killing)"}, "THZ531": {"compound": "CN(C)C/C=C/C(=O)Nc1ccc(C(=O)N2CCC[C@@H](Nc3ncc(Cl)c(-c4c[nH]c5ccccc45)n3)C2)cc1 [THZ531]", "experiment": "GR value, 72 h; higher = faster growth (1 = untreated, <0 = killing)"}, "THZ1": {"compound": "CN(C)C/C=C/C(=O)Nc1ccc(C(=O)Nc2cccc(Nc3ncc(Cl)c(-c4c[nH]c5ccccc45)n3)c2)cc1 [THZ1]", "experiment": "GR value, 72 h; higher = faster growth (1 = untreated, <0 = killing)"}, "Flavopiridol": {"compound": "CN1CC[C@H](c2c(O)cc(O)c3c(=O)cc(-c4ccccc4Cl)oc23)[C@H](O)C1 [Flavopiridol]", "experiment": "GR value, 72 h; higher = faster growth (1 = untreated, <0 = killing)"}}}
{"cell line": "HS578T", "values": [{"measurement": "GR50, 72 h", "setting": "Paclitaxel", "result": 0.00102, "unit": "µM"}, {"measurement": "GR50, 72 h", "setting": "BSJ-03-123", "result": 1.45, "unit": "µM"}, {"measurement": "GR50, 72 h", "setting": "SHP099", "result": "> 10", "unit": "µM"}, {"measurement": "GR50, 72 h", "setting": "[1]", "result": 0.0776, "unit": "µM"}, {"measurement": "GR50, 72 h", "setting": "[2]", "result": 0.00894, "unit": "µM"}, {"measurement": "GR50, 72 h", "setting": "Cabozantinib", "result": 6.38, "unit": "µM"}, {"measurement": "GR50, 72 h", "setting": "AZD5363", "result": 4.82, "unit": "µM"}, {"measurement": "GR50, 72 h", "setting": "Buparlisib/NVP-BKM120", "result": 0.687, "unit": "µM"}, {"measurement": "GR50, 72 h", "setting": "Vorinostat", "result": 0.904, "unit": "µM"}, {"measurement": "GR value", "setting": "YKL-5-124; 0.001 µM", "result": 0.455, "unit": "GR"}, {"measurement": "GR value", "setting": "YKL-5-124; 0.003162 µM", "result": 0.364, "unit": "GR"}, {"measurement": "GR value", "setting": "YKL-5-124; 0.01 µM", "result": 0.311, "unit": "GR"}, {"measurement": "GR value", "setting": "YKL-5-124; 0.03162 µM", "result": 0.239, "unit": "GR"}, {"measurement": "GR value", "setting": "YKL-5-124; 0.1 µM", "result": 0.242, "unit": "GR"}, {"measurement": "GR value", "setting": "YKL-5-124; 0.3162 µM", "result": 0.195, "unit": "GR"}, {"measurement": "GR value", "setting": "YKL-5-124; 1 µM", "result": 0.167, "unit": "GR"}, {"measurement": "GR value", "setting": "YKL-5-124; 3.162 µM", "result": 0.0237, "unit": "GR"}, {"measurement": "GR value", "setting": "YKL-5-124; 10 µM", "result": -0.462, "unit": "GR"}, {"measurement": "GR value", "setting": "[3]; 0.0003162 µM", "result": 1.07, "unit": "GR"}, {"measurement": "GR value", "setting": "[3]; 0.001 µM", "result": 0.988, "unit": "GR"}, {"measurement": "GR value", "setting": "[3]; 0.003162 µM", "result": 0.928, "unit": "GR"}, {"measurement": "GR value", "setting": "[3]; 0.01 µM", "result": 0.764, "unit": "GR"}, {"measurement": "GR value", "setting": "[3]; 0.03162 µM", "result": 0.666, "unit": "GR"}, {"measurement": "GR value", "setting": "[3]; 0.1 µM", "result": 0.569, "unit": "GR"}, {"measurement": "GR value", "setting": "[3]; 0.3162 µM", "result": 0.481, "unit": "GR"}, {"measurement": "GR value", "setting": "[3]; 1 µM", "result": 0.423, "unit": "GR"}, {"measurement": "GR value", "setting": "[3]; 3.162 µM", "result": 0.302, "unit": "GR"}, {"measurement": "GR value", "setting": "[4]; 0.001 µM", "result": 0.969, "unit": "GR"}, {"measurement": "GR value", "setting": "[4]; 0.003162 µM", "result": 0.776, "unit": "GR"}, {"measurement": "GR value", "setting": "[4]; 0.01 µM", "result": 0.699, "unit": "GR"}, {"measurement": "GR value", "setting": "[4]; 0.03162 µM", "result": 0.521, "unit": "GR"}, {"measurement": "GR value", "setting": "[4]; 0.1 µM", "result": 0.442, "unit": "GR"}, {"measurement": "GR value", "setting": "[4]; 0.3162 µM", "result": 0.268, "unit": "GR"}, {"measurement": "GR value", "setting": "[4]; 1 µM", "result": 0.217, "unit": "GR"}, {"measurement": "GR value", "setting": "[4]; 3.162 µM", "result": -0.238, "unit": "GR"}, {"measurement": "GR value", "setting": "[4]; 10 µM", "result": -0.576, "unit": "GR"}, {"measurement": "GR value", "setting": "[5]; 0.0001 µM", "result": 0.955, "unit": "GR"}, {"measurement": "GR value", "setting": "[5]; 0.0003162 µM", "result": 1.04, "unit": "GR"}, {"measurement": "GR value", "setting": "[5]; 0.001 µM", "result": 0.986, "unit": "GR"}, {"measurement": "GR value", "setting": "[5]; 0.003162 µM", "result": 1.02, "unit": "GR"}, {"measurement": "GR value", "setting": "[5]; 0.01 µM", "result": 0.313, "unit": "GR"}, {"measurement": "GR value", "setting": "[5]; 0.03162 µM", "result": -0.21, "unit": "GR"}, {"measurement": "GR value", "setting": "[5]; 0.1 µM", "result": -0.191, "unit": "GR"}, {"measurement": "GR value", "setting": "[5]; 0.3162 µM", "result": -0.216, "unit": "GR"}, {"measurement": "GR value", "setting": "[5]; 1 µM", "result": -0.237, "unit": "GR"}, {"measurement": "GR value", "setting": "LEE011/Ribociclib; 0.001 µM", "result": 0.825, "unit": "GR"}, {"measurement": "GR value", "setting": "LEE011/Ribociclib; 0.003162 µM", "result": 0.861, "unit": "GR"}, {"measurement": "GR value", "setting": "LEE011/Ribociclib; 0.01 µM", "result": 0.73, "unit": "GR"}, {"measurement": "GR value", "setting": "LEE011/Ribociclib; 0.03162 µM", "result": 0.672, "unit": "GR"}, {"measurement": "GR value", "setting": "LEE011/Ribociclib; 0.1 µM", "result": 0.63, "unit": "GR"}, {"measurement": "GR value", "setting": "LEE011/Ribociclib; 0.3162 µM", "result": 0.621, "unit": "GR"}, {"measurement": "GR value", "setting": "LEE011/Ribociclib; 1 µM", "result": 0.591, "unit": "GR"}, {"measurement": "GR value", "setting": "LEE011/Ribociclib; 3.162 µM", "result": 0.513, "unit": "GR"}, {"measurement": "GR value", "setting": "LEE011/Ribociclib; 10 µM", "result": 0.373, "unit": "GR"}, {"measurement": "GR value", "setting": "THZ531; 0.0001 µM", "result": 1.04, "unit": "GR"}, {"measurement": "GR value", "setting": "THZ531; 0.0003162 µM", "result": 0.978, "unit": "GR"}, {"measurement": "GR value", "setting": "THZ531; 0.001 µM", "result": 1, "unit": "GR"}, {"measurement": "GR value", "setting": "THZ531; 0.003162 µM", "result": 1.03, "unit": "GR"}, {"measurement": "GR value", "setting": "THZ531; 0.01 µM", "result": 0.993, "unit": "GR"}, {"measurement": "GR value", "setting": "THZ531; 0.03162 µM", "result": 0.798, "unit": "GR"}, {"measurement": "GR value", "setting": "THZ531; 0.1 µM", "result": 0.051, "unit": "GR"}, {"measurement": "GR value", "setting": "THZ531; 0.3162 µM", "result": -0.213, "unit": "GR"}, {"measurement": "GR value", "setting": "THZ531; 1 µM", "result": -0.252, "unit": "GR"}, {"measurement": "GR value", "setting": "THZ1; 0.0001 µM", "result": 0.977, "unit": "GR"}, {"measurement": "GR value", "setting": "THZ1; 0.0003162 µM", "result": 1.03, "unit": "GR"}, {"measurement": "GR value", "setting": "THZ1; 0.001 µM", "result": 0.99, "unit": "GR"}, {"measurement": "GR value", "setting": "THZ1; 0.003162 µM", "result": 1.03, "unit": "GR"}, {"measurement": "GR value", "setting": "THZ1; 0.01 µM", "result": 0.784, "unit": "GR"}, {"measurement": "GR value", "setting": "THZ1; 0.03162 µM", "result": 0.125, "unit": "GR"}, {"measurement": "GR value", "setting": "THZ1; 0.1 µM", "result": -0.199, "unit": "GR"}, {"measurement": "GR value", "setting": "THZ1; 0.3162 µM", "result": -0.251, "unit": "GR"}, {"measurement": "GR value", "setting": "THZ1; 1 µM", "result": -0.371, "unit": "GR"}, {"measurement": "GR value", "setting": "Flavopiridol; 0.0001 µM", "result": 1, "unit": "GR"}, {"measurement": "GR value", "setting": "Flavopiridol; 0.0003162 µM", "result": 1.01, "unit": "GR"}, {"measurement": "GR value", "setting": "Flavopiridol; 0.001 µM", "result": 0.977, "unit": "GR"}, {"measurement": "GR value", "setting": "Flavopiridol; 0.003162 µM", "result": 0.969, "unit": "GR"}, {"measurement": "GR value", "setting": "Flavopiridol; 0.01 µM", "result": 0.95, "unit": "GR"}, {"measurement": "GR value", "setting": "Flavopiridol; 0.03162 µM", "result": 0.923, "unit": "GR"}, {"measurement": "GR value", "setting": "Flavopiridol; 0.1 µM", "result": 0.711, "unit": "GR"}, {"measurement": "GR value", "setting": "Flavopiridol; 0.3162 µM", "result": 0.107, "unit": "GR"}, {"measurement": "GR value", "setting": "Flavopiridol; 1 µM", "result": -0.265, "unit": "GR"}]}
